Test results reported in PubChem BioAssay AID248 (DTP/NCI, 2004).
“And” between values parts separate entries of the source, which are not always exact repeats. Equal values may be shown once. Toxic doses and inconclusive results are not listed. No stated cut-off is given here; in the data, active means T/C of 150% or more; inactive means T/C below 125%.

Tested on: L1210 leukemia ip in BDF1 mice, survival T/C
Experiment: NCI In Vivo Anticancer Drug Screen. Data for tumor model L1210 Leukemia (intraperitoneal) in B6D2F1 (BDF1) mice
Settings: endpoint: mean survival time, higher = longer survival
Method in brief: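 Transplanted-tumor mice were given test agent; controls received vehicle only. Survival readings from the two groups were divided (treated over control).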

[1] = dose: 100.0 mg/kg/injection, schedule: Q04DX003 (ip), vehicle: saline with Tween-80
[2] = dose: 200.0 mg/kg/injection, schedule: Q04DX003 (ip), vehicle: saline with Tween-80
[3] = dose: 400.0 mg/kg/injection, schedule: Q04DX003 (ip), vehicle: saline with Tween-80
[4] = dose: 50.0 mg/kg/injection, schedule: Q04DX003 (ip), vehicle: saline with Tween-80
[5] = dose: 100.0 mg/kg/injection, schedule: Q04DX002 (ip), vehicle: saline with Tween-80
[6] = dose: 200.0 mg/kg/injection, schedule: Q04DX002 (ip), vehicle: saline with Tween-80
[7] = dose: 400.0 mg/kg/injection, schedule: Q04DX002 (ip), vehicle: saline with Tween-80
[8] = dose: 100.0 mg/kg/injection, schedule: Q04DX003 (ip), vehicle: Klucel (hydroxypropylcellulose) (HPC)
[9] = dose: 200.0 mg/kg/injection, schedule: Q04DX003 (ip), vehicle: Klucel (hydroxypropylcellulose) (HPC)
[10] = dose: 400.0 mg/kg/injection, schedule: Q04DX003 (ip), vehicle: Klucel (hydroxypropylcellulose) (HPC)
[11] = dose: 50.0 mg/kg/injection, schedule: Q01DX009 (ip), vehicle: Klucel (hydroxypropylcellulose) (HPC)
[12] = dose: 100.0 mg/kg/injection, schedule: Q01DX009 (ip), vehicle: Klucel (hydroxypropylcellulose) (HPC)
[13] = dose: 100.0 mg/kg/injection, schedule: Q01DX009 (ip), vehicle: saline with Tween-80
[14] = dose: 200.0 mg/kg/injection, schedule: Q01DX009 (ip), vehicle: saline with Tween-80
[15] = dose: 400.0 mg/kg/injection, schedule: Q01DX009 (ip), vehicle: saline with Tween-80

Measured: T/C

C=CCc1cnc(N)[nH]c1=O
inactive: [1] 103 % of control | [2] 97 % of control | [3] 100 % of control

COC1CN(C)C(=Nc2cccc3ccccc23)S1 (configuration not stated)
inactive: dose: 100.0 mg/kg/injection, schedule: Q01DX009 (ip), vehicle: other 100 % of control | dose: 100.0 mg/kg/injection, schedule: Q04DX003 (ip), vehicle: other 103 % of control | dose: 200.0 mg/kg/injection, schedule: Q01DX009 (ip), vehicle: other 94 % of control | dose: 200.0 mg/kg/injection, schedule: Q04DX003 (ip), vehicle: other 95 % of control | dose: 400.0 mg/kg/injection, schedule: Q01DX009 (ip), vehicle: other 97 % of control | dose: 400.0 mg/kg/injection, schedule: Q04DX003 (ip), vehicle: other 92 % of control

O=C1C2CCCCC1C(N1CCCC1)CC2 (configuration not stated)
inactive: dose: 100.0 mg/kg/injection, schedule: Q01DX009 (sc), vehicle: olive oil, sesame oil, peanut oil 98 % of control | dose: 100.0 mg/kg/injection, schedule: Q04DX003 (sc), vehicle: olive oil, sesame oil, peanut oil 96 % of control | dose: 200.0 mg/kg/injection, schedule: Q01DX009 (sc), vehicle: olive oil, sesame oil, peanut oil 104 % of control | dose: 200.0 mg/kg/injection, schedule: Q04DX003 (sc), vehicle: olive oil, sesame oil, peanut oil 100 % of control | dose: 400.0 mg/kg/injection, schedule: Q04DX003 (sc), vehicle: olive oil, sesame oil, peanut oil 111 % of control

CN=Cc1ccccc1
inactive: [4] 91 % of control | [1] 94 % of control

CN(C)/C=N\c1ncnc2c1ncn2C1OC(CO)C(O)C1O (configuration not stated)
inactive: [5] 102 % of control | [6] 98 % of control | [7] 102 % of control

COc1ccc(N=Cc2c(O)ccc3ccccc23)cc1
inactive: [8] 107 % of control | [9] 98 % of control | [10] 102 % of control

CC1(C)C=CC2CC2(C)C(=O)C1 (configuration not stated)
inactive: [5] 98 % of control | [6] 112 % of control | [7] 102 % of control

CC(C)=CCC/C(C)=C/CN1C(=O)C=CC1=O
inactive: dose: 12.5 mg/kg/injection, schedule: Q01DX009 (ip), vehicle: water 91 % of control | dose: 25.0 mg/kg/injection, schedule: Q01DX009 (ip), vehicle: water 86 % of control | dose: 25.0 mg/kg/injection, schedule: Q04DX003 (ip), vehicle: water 97 % of control | dose: 50.0 mg/kg/injection, schedule: Q04DX003 (ip), vehicle: water 98 % of control | dose: 100.0 mg/kg/injection, schedule: Q04DX003 (ip), vehicle: water 104 % of control

C[N+]1(CCO)CC[N+](C)(CCO)CC1 (configuration not stated)
inactive: dose: 100.0 mg/kg/injection, schedule: Q04DX002 (ip), vehicle: saline 90 % of control | dose: 200.0 mg/kg/injection, schedule: Q04DX002 (ip), vehicle: saline 104 % of control | dose: 400.0 mg/kg/injection, schedule: Q04DX002 (ip), vehicle: saline 101 % of control

O=c1[nH]nc(SCc2ccccc2)c(=O)n1C(c1ccccc1)c1ccccc1
inactive: dose: 100.0 mg/kg/injection, schedule: Q01DX001 (ip), vehicle: other 90 % of control | dose: 200.0 mg/kg/injection, schedule: Q01DX001 (ip), vehicle: other 90 % of control | dose: 400.0 mg/kg/injection, schedule: Q01DX001 (ip), vehicle: other 98 % of control

COc1cc2c(cc1OC)C(Cc1ccc(O)cc1)N(C)CC2 (configuration not stated)
inactive: dose: 100.0 mg/kg/injection, schedule: Q01DX001 (ip), vehicle: saline 96 % of control | dose: 200.0 mg/kg/injection, schedule: Q01DX001 (ip), vehicle: saline 91 % of control

CCOC(=O)N1c2ccccc2C=CC1/C(N)=N/O (configuration not stated)
inactive: [11] 95 % of control | [12] 89 % of control | [8] 97 % of control | [9] 91 % of control

O=C(CCl)Nc1ccc(Br)cc1
inactive: [13] 109 % of control | [14] 96 % of control

CC[PH+]1c2ccccc2Oc2ccccc21.CC[PH+]1c2ccccc2Oc2ccccc21.[Br][Pd][Br]
inactive: dose: 12.5 mg/kg/injection, schedule: Q04DX003 (ip), vehicle: saline with Tween-80 98 % of control | dose: 25.0 mg/kg/injection, schedule: Q04DX003 (ip), vehicle: saline with Tween-80 98 % of control | [4] 98 % of control

Cc1ccc(C)c(NC(=O)Oc2ccc(F)cc2Cl)c1
inactive: [11] 91 % of control | [12] 90 % of control | [8] 94 % of control | dose: 200.0 mg/kg/injection, schedule: Q01DX009 (ip), vehicle: Klucel (hydroxypropylcellulose) (HPC) 87 % of control | [9] 105 % of control

ClCCCC1(c2ccc(Oc3ccccc3)cc2)OCCO1
inactive: [13] 88 % of control | [1] 105 % of control | [14] 92 % of control | [2] 95 % of control | [15] 93 % of control | [3] 94 % of control

N#CC(C#N)=Cc1ccc(C=C(C#N)C#N)cc1
inactive: dose: 25.0 mg/kg/injection, schedule: Q04DX003 (ip), vehicle: Klucel (hydroxypropylcellulose) (HPC) 98 % of control | [11] 103 % of control | dose: 50.0 mg/kg/injection, schedule: Q04DX003 (ip), vehicle: Klucel (hydroxypropylcellulose) (HPC) 98 % of control | [12] 86 % of control | [8] 98 % of control and 105 % of control | [9] 100 % of control | [10] 108 % of control

CC(C)CCOC(=O)C(Br)c1ccccc1 (configuration not stated)
inactive: [13] 95 % of control | [1] 104 % of control | [14] 88 % of control | [2] 99 % of control | [15] 88 % of control | [3] 95 % of control

CCCCCC(C)NCCOC(=O)c1ccc([N+](=O)[O-])cc1 (configuration not stated)
inactive: dose: 75.0 mg/kg/injection, schedule: Q01DX001 (ip), vehicle: other 103 % of control | dose: 150.0 mg/kg/injection, schedule: Q01DX001 (ip), vehicle: other 103 % of control | dose: 300.0 mg/kg/injection, schedule: Q01DX001 (ip), vehicle: other 106 % of control

CC(=O)OC12CC[N+]3(C)CCCCC3C1=Nc1ccccc12 (configuration not stated)
inactive: dose: 6.25 mg/kg/injection, schedule: Q01DX009 (ip), vehicle: saline 98 % of control | dose: 10.0 mg/kg/injection, schedule: Q01DX001 (ip), vehicle: carboxymethylcellulose (CMC) 102 % of control | dose: 12.5 mg/kg/injection, schedule: Q01DX009 (ip), vehicle: saline 102 % of control | dose: 20.0 mg/kg/injection, schedule: Q01DX001 (ip), vehicle: carboxymethylcellulose (CMC) 105 % of control | dose: 25.0 mg/kg/injection, schedule: Q01DX009 (ip), vehicle: saline 102 % of control | dose: 25.0 mg/kg/injection, schedule: Q04DX003 (ip), vehicle: saline 103 % of control | dose: 40.0 mg/kg/injection, schedule: Q01DX001 (ip), vehicle: carboxymethylcellulose (CMC) 100 % of control | dose: 80.0 mg/kg/injection, schedule: Q01DX001 (ip), vehicle: carboxymethylcellulose (CMC) 102 % of control
